The values below come from ChEMBL document CHEMBL4831550, “Fusidane-Type Antibiotics from the Marine-Derived Fungus Simplicillium sp. SCSIO 41513” (2021).

In brackets after ≈: the same amount, converted by molar mass. Bounds are passed on as bounds.

The test system of the test is Staphylococcus aureus. Description: Antibacterial activity against Staphylococcus aureus ATCC 6538 assessed as inhibition of bacterial growth incubated for 24 hrs by CLSI based microdilution method. Type of test: functional. (Dilution methods test growth across graded concentrations, often in twofold steps.)
Turning to `C/C(=C\CCC1=C2[C@H](C[C@@]3(C)[C@H]2C[C@@H](O)[C@H]2[C@@]4(C)CC[C@@H](O)[C@@H](C)[C@@H]4CC[C@@]23C)OC1=O)CO`, the MIC99.9 is above 100 µg/mL.
In the case of `CC(=O)O[C@H]1C[C@@]2(C)[C@@H](C[C@@H](O)[C@H]3[C@@]4(C)CC[C@@H](O)[C@@H](C)[C@@H]4CC[C@@]32C)/C1=C(\CC/C=C(\C)CO)C(=O)O` it was 2.5 µg/mL (≈ 4.69 µM); in that of `C/C(=C\CCC1=C2[C@H](C[C@@]3(C)[C@H]2C[C@@H](O)[C@H]2[C@@]4(C)CC[C@@H](O)[C@@H](C)[C@@H]4CC[C@@]23CO)OC1=O)C(=O)O`, above 100 µg/mL; in that of `C/C(=C\CCC1=C2[C@H](C[C@@]3(C)[C@H]2C[C@@H](O)[C@H]2[C@@]4(C)CC[C@@H](O)[C@@H](CO)[C@@H]4CC[C@@]23C)OC1=O)C(=O)O`, above 100 µg/mL.
In the case of `C/C(=C\CCC1=C2[C@H](C[C@@]3(C)[C@H]2C[C@@H](O)[C@H]2[C@@]4(C)CC[C@@H](O)[C@@H](C)[C@@H]4C[C@@H](O)[C@@]23C)OC1=O)C(=O)O`, the MIC99.9 is above 100 µg/mL.
Regarding `CC(=O)O[C@H]1C[C@@]2(C)[C@@H](CC(=O)[C@H]3[C@@]4(C)CC[C@@H](O)[C@@H](C)[C@@H]4CC[C@@]32C)/C1=C(\CCC=C(C)C)C(=O)O`, the MIC99.9 turned out to be 0.078 µg/mL (≈ 0.152 µM).
